Reference: EP0002836A1, “Acylhydrocarbylaminoalcanecarboxylic acids, their preparation and their use, and pharmaceutical compositions containing them” (Byk Gulden Lomberg Chemische Fabrik GmbH, priority 1977, dated 1979)

How the values were obtained:
[1] = Acute toxicity in mice, intraperitoneal; type: in vivo; conditions: mouse, in vivo, ip; Maus, i.p.; female NMRI mice, 14 days observation; read-out: Toxizität LD50
Source text: (§1) Die Toxizitätsuntersuchungen werden an weiblichen NMRI-Mäusen (Körpergewicht 22 - 26 g) durchgeführt. Die Tiere (5 Tiere pro Dosis) erhalten Futter und Wasser ad libitum. Verschiedene Dosierungen der Substanzen werden intraperitoneal verabreicht. Die Beobachtungsdauer beträgt 14 Tage. Die DL50, d.h. die Dosis, bei der 50 % der Tiere sterben, wird aus der Dosiswirkungskurve ermittelt.

[2] = system: Gallesekretion narkotisierter Ratten; test: Bile secretion (choleresis) of anaesthetised rats after intraduodenal administration; type: in vivo, Ratte; conditions: for TQ [LD50/ED50]: LD50 (Maus, i.p.) / ED50 Gallesekretion (Ratte i.d.), for Lfd.Nr. 1 the cited p.o. LD50; for ED50: Rattus norvegicus, 0.5 h, Ratte i.d., dose that raises bile secretion (fluid volume, 30-min fraction) by maximally 50 %
Source text: (§2) In Tabelle II werden Untersuchungen der Gallesekretion (Cholerese) von narkotisierten Ratten nach intraduodenaler Applikation (ED50) und die letale Wirkung an der Maus (LD50) nach intraperitonealer Applikation von Vertretern der erfindungsgemäßen Verbindungen sowie der therapeutische Quotient (TQ = LD50/ED50) wiedergegeben.
(§3) Einfluß auf die Pankreas- und Gallesekretion der narkotisierten Ratte Versuchsdurchführung:
(§4) Männliche Sprague-Dawley-Ratten (250 - 300 ^g Körpergewicht) werden mit 1,2 g/kg Urethan i.m. narkotisiert. Dann wird die Bauchhöhle medial geöffnet, der Ductus choledochus kurz oberhalb seiner Mündung in das Duodenum sowie nahe der Leberpforte ligiert, beide Gangabschnitte werden leberwärts katheterisiert.
(§5) Da bei der Ratte alle Pankreaskanäle in den mittleren Abschnitt des Ductus choledochus munden,lassen sich auf diese Weise aus dem distalen (ligierten) Gangabschnitt das Pankreassekret und aus dem proximalen Teil des Ductus choledochus die Galle getrennt ableiten.
(§6) Die sezernierten Mengen an Pankreas- und Gallensaft werden in 30 min. Abständen während 2 Stunden vor bis 3 Stunden nach der intraduodenalen ([…]) Verabreichung der zu prüfenden Verbindungen (verabreichtes Flüssigkeitsvolumen 5 ml/kg) gemessen.
(§7) Die Körpertemperatur der Tiere wird mittels Heizkissen und Bestrahlung auf 36 - 38°C gehalten; die Temperaturkontrolle erfolgt rectal.
(§8) Auswertung: • Die Flüssigkeitsvolumina der 30-min.-Fraktionen nach der Substanzgabe werden jeweils auf die vor der Substanzapplikation ausgeschiedene Galle- bzw. Pankreassaftmenge (= 100 %, Mittelwert aus den beiden letzten Messungen) bezogen. Die maximale prozentuale Steigerung der Pankreas- bzw. Gallesekretion wird in Abhängigkeit von der Dosis dargestellt und daraus die ED50 durch Interpolation ermittelt.

[3] = system: CCl4-lebergeschädigte Ratten; test: Antihepatotoxic effect: hexobarbital sleeping time of rats after CCl4 liver damage; type: in vivo, Ratte; conditions: for TQ [LD50/ED50]: LD50 (Maus i.p.) / ED50 antihepatotoxischer Effekt (Ratte, p.o.), for Lfd.Nr. 1 the cited p.o. LD50; for ED50: Rattus norvegicus, po, Ratte, p.o., dose that shortens hexobarbital narcosis of CCl4-liver-damaged rats by 50 %, sodium salts in aqueous solution, given 1 h before CCl4, read-out: Antihepatotoxischer Effekt ED50
Source text: In Tabelle III werden Untersuchungen der antihepatotoxischen Wirkung (ED50) erfindungsgemäßer Verbindungen nach oraler Applikation an wachen Ratten und die letale Wirkung nach intraperitonealer Applikation an der Maus (LD50) sowie der therapeutische Quotient (TQ = LD50/ED50) wiedergegeben.
Prüfung auf antihepatotoxische Wirkung
Einfluß auf die Hexobarbitalschlafdauer der Ratte nach CCl4-Leberschädi- gung
Versuchsdurchführung: • In Anlehnung an VOGEL et al. [Arzneim.Forsch. 25(1975)82] wird bei nüchternen weiblichen Sprague-Dawley-Ratten (190 *10 g Körpergewicht, 10 Tiere/Dosis pro Versuchsansatz) durch orale Verabreichung von Tetrachlorkohlenstoff ([…] CC14 in 2,5 ml/kg Olivenöl) ein Leberzellenschaden erzeugt, dessen Ausmaß an der Verlängerung der Hexobarbitalnatrium-Schlafdauer (50mg/ml/kg i.v.;Schwanzvene, Injektionsdauer 45 - 60 sec.) 47 Stunden nach der CC14-Gabe bestimmt wird. Die zu prüfenden Verbindungen werden eine Stunde vor der CC14-Gabe oral in einem Flüssigkeitsvolumen von 10 ml/kg verabreicht.
Auswertung: • Der antihepatotoxische Effekt der zu prüfenden Verbindungen (NatriumSalze in wäßriger Lösung) wird an der prozentualen Verkürzung der durch die CC14-Leberzellschädigung bedingten Schlafdauerverlängerung bei den behandelten Gruppen gegenüber der Schlafdauerverlängerung der CC14-Kontrollgruppe (= 100 %) gemessen. Die ED50 wurde durch Interpolation aus der Dosis-Wirkungskurve ermittelt.

[4] = system: Pankreassekretion narkotisierter Ratten; test: Pancreatic secretion of anaesthetised rats after intraduodenal administration; type: in vivo, Ratte; conditions: for TQ [LD50/ED50]: LD50 (Maus, i.p.) / ED50 Pankreassekretion (Ratte, i.d.), for Lfd.Nr. 1 the cited p.o. LD50; for ED50: Rattus norvegicus, 0.5 h, Ratte, i.d., dose that raises pancreatic secretion (fluid volume, 30-min fraction) by maximally 50 %
Source text: as §2, with “I” for “II”, “Pankreassekretion” for “Gallesekretion (Cholerese)”, “(^TQ” for “(TQ”
as §3, §4, §5, §6, §7, §8

Maus = test: Acute toxicity in mice, intraperitoneal; type: in vivo; conditions: i.p., female NMRI mice, 14 days observation
Source text: as §1

Row | Compound | LD50 at 336 h [1] [mg/kg] | TQ [LD50/ED50] [2] | ED50 [2] [mg/kg] | TQ [LD50/ED50] [3] | ED50 [3] [mg/kg] | TQ [LD50/ED50] [4] | ED50 [4] [mg/kg] | TQ [LD50/ED50] ([4]; listed as 1) | Toxizität LD50 (Maus) [mg/kg] | ED50 ([4]; intraduodenal) [mg/kg] | ED50 ([2]; intraduodenal) [mg/kg]
1 | C#CC1(N(CCCC(=O)O)C(C)=O)CCCCC1 [Lfd. Nr. 8, N-Acetyl-4-[(1-ethinyl-cyclohexyl-1)-amino]-buttersäure] | 190 | 32 | 6 |  |  |  |  |  |  |  | 
2 | CC(C)(C)N(CCCC(=O)O)C(=O)c1ccc(Cl)cc1 [Lfd. Nr. 2, N-p-Chlorbenzoyl-4-(tert.-butylamino)-buttersäure] | > 1000 | > 40 | 25 | > 10 | 100 |  |  |  |  |  | 
3 | O=C(O)CCCN(C(=O)c1ccc(Cl)cc1)C12CC3CC(CC(C3)C1)C2 [Lfd. Nr. 6, N-p-Chlorbenzoyl-4-(1-adamantyl)-aminobuttersäure] | 1100 | 220 | 5 | 110 | 10 | ~220 | ~5 |  |  |  | 
4 | CC(C)(C)CC(C)(C)N(CCCC(=O)O)C(=O)c1ccc(Cl)cc1 [Lfd. Nr. 7, N-p-Chlorbenzoyl-4-[(1.1.3.3-tetramethyl-butyl)-amino]-butter-säure] |  | 27 | 40 | < 3,6 | > 300 |  | 35 | 31 |  |  | 
5 | O=C(O)CCCN(Cc1ccccc1)C(=O)c1ccc(Cl)cc1 [Lfd. Nr. 15, N-p-Chlorbenzoyl-4-benzylamino-buttersäure] | 150 |  |  | 18,8 | 8 | 60 | 2.5 |  |  |  | 
6 | CCC(C)(C)N(CCCC(=O)O)C(=O)c1ccc(Cl)cc1Cl [Lfd. Nr. 11, N-2,4-Dichlorbenzoyl-4-[(1.1-dimethyl-propyl)-amino]-butter-säure] | 200 |  |  |  |  | 200 | 1 |  |  |  | 
7 | CC(C)(C)CC(C)(C)N(CCCC(=O)O)C(=O)c1ccc(F)cc1 [Beispiel 16] |  |  |  |  |  |  |  |  | 400 | ~10 | 
8 | O=C(O)CCCN(C(=O)c1ccc(Cl)cc1)C1CCCCCCC1 [Lfd. Nr. 18, N-p-Chlorbenzoyl-4-cyclooctylamino-buttersäure] | 350 |  |  |  |  | 233 | 1.5 |  |  |  | 
9 | C#CC1(N(CCCC(=O)O)C(=O)c2ccc(Cl)cc2)CCCCC1 [Beispiel 5] |  |  |  |  |  |  |  |  |  |  | 6
10 | C#CC(C)(C)N(CCCC(=O)O)C(=O)c1ccc(Cl)cc1 [Lfd. Nr. 3, N-p-Chlorbenzoyl-4-[(2-methyl-3-butin-2-yl)-amino]-buttersäure] | > 1000 |  |  |  |  | »100 | 10 |  |  |  | 
11 | C#CC(CC)(CC)N(CCCC(=O)O)C(=O)c1ccc(Cl)cc1 [Lfd. Nr. 4, N-p-Chlorbenzoyl-4-[(3-ethyl-1-pentin-3-yl)-amino]-buttersäure] | 780 | 43 | 18 | 7,8 | 100 | 156 | 5 |  |  |  | 
